In patent publication US20070145618A1, “Methods of making microencapsulated delivery vehicles” (Kimberly-Clark Worldwide, Inc., priority 2005, published 2007):
Where two headings read alike, the source gives them in different places.

Tests used:
[1] = particle size 149-355 micrometers; 35 wt % in mineral oil; added to 7.0 grams de-ionized water; compared with four other size ranges
Description: In this example, samples incorporating various size ranges of anhydrous calcium chloride suspended in mineral oil at 35 wt % were evaluated for their ability to generate heat upon introduction into water.
The five size ranges of anhydrous calcium chloride evaluated were: (1) less than 149 microns; (2) 149-355 microns; (3) 710-1190 microns; (4) 1190-2000 microns; and (5) 2000-4000 microns. The samples of anhydrous calcium chloride (Dow Chemical, Midland, Mich.) were dispersed in mineral oil (available as Drakeol 7 LT NF from Penreco, Dickinson, Tex.). The as received anhydrous calcium chloride were screened dry using a Gilson Sonic Sieve (Gilson Company, Inc. Columbus, Ohio) to create two sizes, a 1190-2000 micron size and a 2000-4000 micron size. These powders were then suspended at 35 wt % in mineral oil to form a slurry using a cowles mixing blade. To achieve the smaller size distributions, the anhydrous calcium chloride powder required further processing. […]
All five samples were then individually added to 7.0 grams de-ionized water and the resulting temperature rise was measured using a Barnant Scanning Thermocouple (available from Therm-X of California, Hayward, Calif.).

[2] = particle size less than 250 micrometers; 35 wt % in mineral oil; added to 7.0 grams de-ionized water; compared with three other size ranges
Description: In this example, samples incorporating various size ranges of anhydrous magnesium chloride suspended in mineral oil at 35 wt % were evaluated for their ability to generate heat upon introduction into water.
The four size ranges of anhydrous magnesium chloride evaluated were: (1) 1000-1500 microns; (2) 600-1000 microns; (3) 250-600 microns; and (4) less than 250 microns. To produce the samples of anhydrous magnesium chloride in mineral oil, the various size ranges of anhydrous magnesium chloride powder (Magnesium Interface Inc. (Vancouver, B.C., Canada) were suspended at 35 wt % in mineral oil (available as Drakeol 7 LT NF from Penreco, Dickinson, Tex.). To produce the samples having anhydrous magnesium chloride with size ranges of 1000-1500 microns, 600-1000 microns, and 250-600 microns, the as received anhydrous magnesium chloride powder was hand screened into the size ranges desired and the powders collected. These powders were suspended at 35 wt % in mineral oil using a cowles mixing blade. […]
All four samples were then added to 7.0 grams de-ionized water and the resulting temperature rise was measured using a J type Thermocouple (available from Omega Engineering, Inc., Stamford, Conn.).

SMILES	rate of heat release (heat generation rate) [1]	rate of heat release (heat generation rate) [2]
[Ca+2].[Cl-].[Cl-] [anhydrous calcium chloride, calcium chloride]	highest rate	
[Cl-].[Cl-].[Mg+2] [anhydrous magnesium chloride, magnesium chloride]		highest rate
